Data as given in US12049483B2, “Selective and noncovalent inhibitors of oncogenic RAS mutants” (New York University, priority 2020, dated 2024).

Experiments:
[1] = system: endogenous KRAS from PATU8902 (KRAS(G12V)) and H358 (KRAS(G12C)); assay: Pull-down assay with biotinylated 12VC1 from cell lysates; type: binding; details: PATU8902 and H358 lysates vs growth factor stimulated HEK293T (wild-type RAS)
Method: Pull-down assays. H358, PATU8902, and HEK293T cells were cultured in 10 cm plates (Corning, #430167). H358 and PATU8902 cells were treated with and without ARS1620 (SelleckChem, 58707) at a final concentration of 10 μM for 1.5 hours, and HEK293T cells were treated with EGF (PeproTech; AF-100-15) at a final concentration of 50 ng/mL for 4 minutes. Cells were lysed by incubating them on ice for 15 minutes in GTPase lysis buffer (25 mM Tris-Cl pH 7.2, 150 mM NaCl, 5 mM MgCl2, 1% NP-40 and 5% glycerol supplemented with protease tablet (Roche, 5892991001) and phosphatase inhibitors (1 mM sodium orthovanadate, 10 mM NAF, 54 mM β-glycerol phosphate)) immediately before analysis. After centrifugation for 15 minutes at 15,000 g, the supernatants were collected and incubated with SA agarose resins (Thermo Fisher Scientific) for 1 hour at 4° C. to remove non-specific binders to the resins. After the removal of resins via centrifugation, the pre-cleared lysates were then incubated with biotinylated monobodies bound to SA agarose resins for 3 hours at 4° C. while rotating. The agarose resins were then washed twice with the GTPase lysis buffer and boiled in 1×SDS buffer with 37.5 mM β-mercaptoethanol and processed for Western blotting using a pan-RAS antibody (Santa Cruz Biotechnology, C-4).

ERK activation (pERK) = assay: ERK activation in dox-inducible monobody-expressing cell lines; type: cell-based
Method: Cell signaling assay and quantification of immunoblots. Cells were lysed in RIPA buffer (50 mM Tris-Cl pH 8, 150 mM NaCl, 5 mM EDTA pH8, 0.1% SDS, 1% NP40) supplemented with protease inhibitors (Roche; 5892991001) and phosphatase inhibitors (54 mM β-glycerophosphate, 10 mM NaF, 1 mM sodium vanadate) for 15 minutes on ice, and centrifuged at 15,000 g for 15 minutes. The supernatant was collected and measured for total protein amount using BCA assay (Thermo Scientific; 23227). Lysate (7-20 μg per well) was loaded onto a pre-cast SDS gel (BioRad; 456-1096) followed by electrophoresis. The proteins were then transferred from the gel to a low fluorescence background PVDF membrane (Millipore; IPFL00010) or regular PVDF membrane (Millipore; ISEQ00010) depending on whether fluorescence or chemiluminescence detection was performed. Phospho-ERK was detected using a rabbit anti-pERK antibody (Cell Signaling; 9101S) and total ERK was detected using a rabbit anti-ERK antibody (Cell Signaling; 9102S). Monobody expression was detected using mouse anti-Flag antibody (Sigma; F3165) or anti-HA tag antibody (BioLegend; 901516). Loading control was detected with primary antibody against tubulin-alpha (Thermo Scientific, 62204) or against cytochrome oxidase (COX IV) (Li-Cor, 926-42214). The total RAS level was detected using a pan-RAS antibody (SCBT, sc-166691). The KRAS level was determined using a KRAS-specific antibody (Sigma, WH0003845M1). For fluorescence detection of immunoblots, the membranes were imaged with a Licor Odyssey Clx imager (Li-Cor Bioscience) using IRDye anti-Rabbit 800CW and anti-Mouse 680LT (Li-Cor Bioscience, 926-32211 and 926-68020, respectively) as secondary antibodies. […] Band intensities of western blot were analyzed with Image Studio Lite version 5.2 (Li-Cor Bioscience). To quantify protein abundance in the degradation experiment, the intensities of pERK, RAS, KRAS, and Flag/HA tag bands were first normalized against the loading control of the perspective blot, which were either tubulin-α, COX IV or total ERK, followed by subsequent normalization to the zero time point. […]

[2] = system: KRAS mutant and control cell lines; assay: Cell proliferation assay of dox-inducible monobody-expressing cell lines; type: cell-based; details: KRAS(G12C) (H358 and H23) and KRAS(G12V) (PATU8902 and H441) cell lines
Method: Cell proliferation assay. […] Cells were then cultured in the presence of 1 μg/mL doxycycline for the entire duration of experiment (7-8 days) and subcultured into a new 12 well or 24 well plate every 2 days. […] The mixed culture was sampled periodically and the ratio between monobody expressing cells (mVenus and GFP positive) and non-expressing cells was determined using flow cytometry analysis (FIG. 11).

With “VSSVPTKLEVVAATPTSLLISWDAPAVTVFFYVITYGETGHGVGAFQAFKVPGSKSTATISGLKPGVDYTITVYARGYSKQGPYKPSPISINYRT [12VC1]” as the sequence, how does the “capture of endogenous KRAS in pull-down” value [1] read?
Its value is “selectively captured endogenous KRAS”.

And the “ERK activation in H358 cells” value (ERK activation (pERK); H358, after 24 and 48 hours, dox-induced expression or ARS1620 treatment)?
Its value is “effectively inhibited”.

And the ERK activation (ERK activation (pERK); KRAS(G12C) (H358 and H23) and KRAS(G12V) (PATU8902 and H441) cell lines, dox-induced expression)?
Its ERK activation is “potently inhibited”.

And the proliferation [2]?
Its proliferation is “potently inhibited”.
